Measurements: US10799590B2, “Compositions containing a bitter tastant and at least one sophorolipid, and methods of reducing bitter taste attributed to a bitter tastant in an edible composition” (The United States of America, as Represented by the …, priority 2015, dated 2020)
“Also recorded” adds a separate entry of the source.

System: T1R3
Assay: Chorda tympani whole-nerve responses to lingual taste stimuli, T1R3-KO mice
Type: in vivo
Settings: lingual application (FIG. 6A, 7)
Method: Mouse model for sweet property and bitter-masking assay. Recordings of chorda tympani (CT) whole-nerve responses: All protocols involving animals were approved by the Institutional Animal Care and Use Committees at the Monell Center prior to the experiments. The study was performed with mice from two strains: C57BL/6J inbred strain (B6; Jackson Laboratory, Bar Harbor, Me.) bearing the wild-type Tas1r3 allele was used as the control, and the C57BL/6J-Tas1r3^tm1Rjm “gene-knockout” strain (T1R3-KO) lacking the entire T1R3 coding region and devoid of T1R3 protein ([…]., et al., Science, 301: 850-853 (2003)). Afferent signals from taste cells are relayed to the brain via three major gustatory nerves: the chorda tympani, glossopharyngeal, and greater superficial petrosal. […] Neural responses resulting from chemical stimulations of the tongue were fed into an amplifier (Grass Instruments, West Warwick, R.I.) and monitored on an oscilloscope and an audio monitor. Whole-nerve responses were integrated with a time constant of 1.0 s and recorded using a computer for later analysis using a PowerLab system (PowerLab/sp4; AD Instruments, Colorado Springs, Colo.). […] To analyze nerve responses to each stimulus, the magnitudes of integrated responses at 5, 10, 15, 20, and 25 s after stimulus onset were measured and averaged. […]

In the case of `OC[C@H]1O[C@@H](O[C@@H]2[C@@H](O)[C@H](O)[C@@H](CO)O[C@H]2O)[C@H](O)[C@@H](O)[C@@H]1O` [Sophorose, 2-O-β-D-glucopyranosyl-β-D glucopyranose], the chorda tympani responses is reported as “serious deficit; also recorded: nearly absent”.
